Assay results as given in article PMC4492822 (EMBO Molecular Medicine, 2015).

Experiments:
[1] = set-up: species or system SCID mice; conditions: mouse, in vivo
Method: Figure 5 Toxicity studies of RK-33 in mice • Following injection of 20 mg/kg of RK-33, twice a week for 7 weeks, extensive histopathological examination was carried out following necropsy. Identical patterns were observed both in the control and in the treated mice (n = 2). Samples were stained with H&E. Scale bar is 50 μm. • Pharmacokinetics of RK-33 in SCID mice at various time intervals. Results are mean ± SD from 5 mice. LC-MS/MS method was used to determine concentration of RK-33 in mouse plasma and tissue. • Liquid chromatography–mass spectrometry (LC-MS/MS) analysis was performed to determine different metabolites of RK-33. • RK-33 and metabolites characterized by LC-MS/MS in human liver microsomes using the scan mode function of the LC-MS/MS. • HAPI cells were treated with RK-33 (10 μM), HA14-1 (25 μM), or DMSO vehicle, followed by oligomycin (oligo, 0.5 μg/ml), FCCP (3 μM), and antimycin A (AA, 1 μM) while oxygen consumption rate (OCR) was measured. Pyruvate (10 mM) was added in combination with FCCP to ensure that substrate supply was not rate-limiting for maximal OCR. Data are mean ± SD from 2 to 3 wells and representative of independent experiments performed with two different HAPI passages. […] Significance was assessed by two-sided, unpaired t-test. […]

[2] = system: A549; assay: Annexin V / PI flow cytometry, 72 h; format: cell-based, human
Method: Histograms depicting early apoptosis (Annexin V positive) and late apoptosis (PI positive) in cells treated with the indicated amounts of RK-33. Cells were either treated with DMSO (controls) or IC50 and IC75 amounts of RK-33. After 72 hours incubation, cells were harvested and stained for Annexin V and PI and analyzed by flow cytometry.

[3] = system: TCF4 activity in H1299 cells; assay: TCF reporter assay (TOP/FOP-FLASH); format: cell-based; conditions: 0, 1, 2, and 3 μM; wild-type and β-catenin-overexpressing cells
Method: Transcriptional activity of TCF4 was assayed using the dual luciferase assay (Promega, Madison, WI, USA) according to the manufacturer's instructions. Briefly, 1.5 × 10^4 A549 or H1299 cells were transfected with 500 ng of TOP-FLASH and control FOP-FLASH constructs along with 50 ng of phRL Renilla constructs as transfection controls as well as with 500 ng β-catenin constructs when indicated. Cells were cultured for 24 h and then lysed in passive lysis buffer. Luminescence was detected using a luminometer (Berthold Sirius, Oak Ridge, TN, USA). Relative TCF4 promoter activity was calculated by dividing firefly luminescence by Renilla luminescence, and then normalized TOP-FLASH was divided by normalized FOP-FLASH, which was finally normalized to vector or DMSO control cells. All experiments were repeated three times, and differences were assessed by the paired t-test.

[4] = system: H1299 cells; assay: Cell cycle analysis by flow cytometry; format: cell-based; conditions: 0, 2, 4, and 6 μM, dose-dependent
Method: A549 and H1299 cells were plated at 1 × 10^5 cells per well of a 6-well plate. Cell cycle was carried out as previously described (Vesuna et al, [2012]). Briefly, cells were trypsinized 24 h after plating and fixed in 70% ethanol overnight at −20°C. Fixed cells were washed with PBS and resuspended in DNA-staining solution (5 μg/ml propidium iodide, 0.5 mg/ml RNase A) for 1 h at room temperature. Cell cycle acquisition was performed on a FACScan I or FACSCalibur instrument (BD Biosciences, San Jose, CA, USA). Independent experiments were repeated three times. Data were analyzed using FlowJo software (Tree Star Inc., Ashland, OR, USA).

[5] = system: lung cancer cell lines (A549, H1299, H460, H23, and H196); assay: Combination experiments with chemotherapy; format: cell-based

With “diimidazo[4,5-d:4′,5′-f]-[1,3]diazepine [RK-33]” the “accumulation in organs (biodistribution)” value [1] was “able to accumulate at therapeutic dose in various organs”, the “cells in gate of Annexin V/PI plot” value ([2]; 9 uM, first (upper) value of panel) was 81.7 and the “cells in gate of Annexin V/PI plot” value ([2]; 9 uM, second value of panel) was 4.44. For the same substance, the “cells in gate of Annexin V/PI plot” value ([2]; 9 uM, third (lowest) value of panel) was 4.73, the “cells in gate of Annexin V/PI plot” value ([2]; 10.5 uM, first (upper) value of panel) was 85.3 and the “cells in gate of Annexin V/PI plot” value ([2]; 10.5 uM, second value of panel) was 5.99. The “cells in gate of Annexin V/PI plot” value ([2]; 10.5 uM, third (lowest) value of panel) was 2.26, the TCF activity [3] was “reduced TCF activity significantly” and the cell cycle effect [4] was “G1 arrest”. The “synergy of RK-33 + cisplatin” value [5] was “did not observe significant synergy” and the “synergy of RK-33 + paclitaxel” value [5] was “did not observe significant synergy”.
